Experimental data published in patent US7119062B1, “Methods and compositions for improved articular surgery using collagen” (Neucoll, Inc., priority 2001, dated 2006).
Where two headings read alike, the source gives them in different places.

How the values were obtained:
[1] = in vivo
[2] = Anesthetic effect of lidocaine in intra-articular collagen injections; type: in vivo; details: 1 mL intra-articular injections of collagen formulation with 0.3% lidocaine
[3] = cited from earlier work
mice = details: cited from earlier work
[4] = adults; cited from earlier work
[5] = cited from earlier work; remark: listed apart in the source
research monkeys = details: cited from earlier work
[6] = standard mutagenicity and clastogenicity assays; cited from earlier work

collagen
time collagen remains in the knee joints [1]: up to 8 weeks

CCN(CC)CC(=O)Nc1c(C)cccc1C [lidocaine]
duration of anesthetic effects of lidocaine [2]: less than an hour
duration of anesthetic effects of lidocaine, in most cases ([2]; in most cases): less than 10 minutes
dosage required to achieve the same clinical efficacy as bupivacaine ([3]; equivalent indications, relative to bupivacaine): 2 to 10 times

CCCCN1CCCCC1C(=O)Nc1c(C)cccc1C (stereo not shown) [bupivacaine]
LD50 (mice; intravenous): 6 to 8 mg/kg
LD50 (mice; subcutaneous): 38 to 54 mg/kg
half life [4]: approximately 3.5 hours
change in VAS pain scores at 1 hour ([3]; 12.5 mg intra-articular, knees of osteoarthritis patients, 1 hour post-administration): statistically significant (p=0.007) fall
effect on VAS pain scores after 1 hour ([3]; 12.5 mg intra-articular, knees of osteoarthritis patients, after 1 hour): no significant effects
duration of analgesia ([3]; intra-articular injection): 2 to 12 h
intra-articular dose that produces analgesia of the joint ([3]; intra-articular): approximately 10 mg
duration of pain relief ([3]; local anesthetic injected into the operated joint at the end of arthroscopy): about 6 hours
maximum dose ([5]; over a 24 hour period): 400 mg
therapeutic apparently safe dose ([5]; single bolus): approximately 225 mg
single dose that produced seizures (research monkeys): 4.4 mg/kg

CCCCN1CCCC[C@H]1C(=O)Nc1c(C)cccc1C [levobupivacaine]
genotoxicity [6]: non-genotoxic
